Molecules are shown by their SMILES.

Assay [1] concerns Homo sapiens. As to the kind of experiment: Inhibition of fractional cholesterol absorption in normolipidemic human at 300 mg administered twice daily for 2 weeks. Format: functional. On the set-up: scale not given: the % may be the effect or the level left.
For assay [2], the system named is Homo sapiens. As to the kind of experiment: Reduction in serum LDL-cholesterol level in normolipidemic human at 300 mg administered twice daily for 2 weeks. The class given is functional. On the set-up: scale not given: the % may be the effect or the level left.

As for `C[C@@H]1CC[C@@]2(OC1)O[C@H]1C[C@H]3[C@@H]4CC[C@H]5C[C@@H](O[C@@H]6O[C@H](CO)[C@@H](O[C@@H]7O[C@H](CO)[C@@H](O)[C@H](O)[C@H]7O)[C@H](O)[C@H]6O)CC[C@]5(C)[C@H]4C(=O)C[C@]3(C)[C@H]1[C@@H]2C` [PAMAQUESIDE], the figures for the Activity in the assay on Homo sapiens [1] and with Homo sapiens [2] were 35% and 10%, respectively.

These data come from ChEMBL document CHEMBL1150938, “Recent natural products based drug development: a pharmaceutical industry perspective” (J Nat Prod, 1998).
